Common to all, as to assay type: cell-based, human
Experiment [1] has as its system p21WAF1/CIP1. The experiment can be described thus: Western analysis of p21WAF1/CIP1 expression in U937 cells. Conditions: for p21WAF1/CIP1 levels: 1 mM SB, 100 nM FP, 1-24 hr. On the procedure: Western analysis. Equal quantities of protein (15 μg/condition for MAPK, 40 μg/condition for cytochrome c, or 25 μg/condition) were separated by SDS-PAGE [underphosporylated pRB (7.5%), poly(ADP-ribose)polymerase or PARP (8.0%), p44/p42 MAPK (10%), p21, p27, procaspase 3 (12%), and cytochrome c (15%)] and electroblotted onto nitrocellulose. Western analysis of p44/p42 MAPK protein was performed according to the manufacturer's instructions (New England Biolabs); otherwise, studies were performed as previously described [Wang et al, 1998]. Briefly, U937 cells (5×10^6) were pelleted by centrifugation, resuspended in 50 μl PBS, lysed by the addition of 2× Laemmli buffer and boiled for 5 min. Proteins were quantified with Coomassie protein assay reagent. Blots were blocked in PBS-T/5% milk, washed twice with PBS-T, and incubated overnight at 4° C. with the appropriate primary antibody. The blots were washed with PBS-T and incubated with a horseradish-peroxidase conjugated secondary antibody diluted appropriately in PBS-T/5% mill. Following incubation, blots were developed by enhanced chemiluminescence exposure to Kodak X-OMAT film (Eastman Kodak Co., Rochester, N.Y.) and reprobed with antibodies directed against actin to control for equal loading of protein.
(§1) Alternatively, whole cell-pellets were washed twice in PBS, resuspended in PBS, and lysed by the addition of I volume of loading buffer. Lysates were boiled for 10 min, centrifuged at 12,800 g for 5 min and quantified using Coomassie protein assay reagent (Pierce, Rockfold, Ill.). 25 μg of total proteins per point were separated by SDS-PAGE and electro-blotted to nitrocellulose. The blots were blocked in 5% non-fat milk in PBS-T and probed for 1 h with the appropriate dilution of primary antibody. Blots were washed 3×10 min in PBS-T and then incubated with a 1:2000 dilution of peroxidase-conjugated secondary antibody for 1 h at room temperature. Blots were again washed 3×10 min in PBS-T and then developed by enhanced chemiluminesence. Where indicated, blots were stripped and re-probed with antibodies directed against actin.
(§2) Primary antibodies for both p21^WAF1/CIP1 and p27^KIP1 (Transduction Laboratories, Lexington, Ky.) were used in a 1:1000 dilution; PARP (1:1000; Oncogene Research Products, Cambridge, Mass.); pro-caspase 3 (1:1000; Transduction Laboratories); cytochrome c (1:2000; Pharmingen); bcl-2 (1:2000; DAKO, Denmark); bax (1:1000; Santa Cruz Biotechnology, Inc., Santa Cruz, Calif.); bid (1:1000; Cell Signaling, Beverly, Mass.); XIAP (1:1000; Cell Signaling); Mcl-1 (1:1000; Pharmingen); bak (1:1000; Calbiochem); c-Myc (1:1000; Pharmingen, San Diego, Calif.); actin (1:2000; Sigma Chemicals, St. Louis, Mo.); cyclins-D1, -A and -E (1:1000; Pharmingen); pRb, underP-pRb, pRb-CDK2 and pRb-CDK4 (all 1:1000; Pharmingen); Ac-H3 and Ac-H4 (both 1:1000; Upstate Biotechnology, Lake Placid, N.Y.); E2F-1 (Upstate Biotechnology). Secondary antibodies conjugated to horseradish peroxidase were obtained from Kirkegaard and Perry Laboratories, Inc. (Gaithersburg, Md.). Coomassie protein assay reagent was purchased from Pierce (Rockford, Ill.), and an enhanced chemiluminescence kit was obtained from New England Nuclear (Boston, Mass.). The pan-caspase inhibitor BOC-D-fmk and the caspase 8 inhibitor Z-IETD-fmk were purchased from Enzyme System Products (Livermore, Calif.) All other chemicals or reagents were purchased from Sigma.

The test system of experiment [2] is cyclin D1. Description: Western analysis of cyclin D1 in U937 cells. Here is the method: as §1
as §2, with “The pan-caspase inhibitor BOC-D-fmk and the caspase 8 inhibitor Z-IETD-fmk were purchased from Enzyme System Products (Livermore, Calif.) All other chemicals or reagents were purchased from Sigma.” left out

For experiment [3], the system named is U937 cells. The experiment can be described thus: cytochrome c release into the cytosol. Conditions: FP 100 nM; for cytochrome c release: SB 1 mM, alone from 1 hr, both drugs ≧6 hr. On the procedure: Cytochrome c release. The assay for cytochrome c release was performed as previously described by Single et al. [1998] with modifications. At designated times following drug treatment, 4×10^6 cells were washed with PBS and resuspended in 50 μl of assay buffer (75 mM NaCl, 1 mM NaH2P0^4, 8 mM Na2HP0^4, 1 mM EDTA, 250 mM sucrose) containing digitonin (700 μg/ml). Three minutes following addition of digitonin assay buffer, cells were pelleted by centrifugation. The supernatants were transferred to tubes containing 2× Laemmli buffer (50 μl) and boiled for 5 minutes. Proteins were separated by SDS-PAGE as described above.
Analysis of cytosolic cytochrome c. A previously described technique was employed.^32 After treatment, cells (5×10^7/condition) were harvested by centrifugation at 600 g for 10 min at 4° C. The S-100, or cytosolic fraction, was prepared as described with minor modifications. Cell pellets were washed once with ice-cold phosphate-buffered saline and resuspended in five volumes of buffer A (20 mM Hepes-KOH, pH 7.5, 10 mM KCl, 1.5 mM MgCl2, 1 mM sodium EDTA, 1 mM sodium EGTA, 1 mM dithiothreitol, 0.1 mM phenylmethlysufonyl fluoride, and 250 mM sucrose; all Sigma. After chilling for 30 min on ice, the cells were disrupted by 15 strokes of a Potter-Elvehjem (PTFE-pestle) homogenizer. The homogenate was then centrifuged twice to remove unbroken cells and nuclei (3000 g for 10 min at 4° C.). The resulting supernatant was further centrifuged at 100,000 g for 1 h at 4° C., and the supernatants, designated as S-100 fractions, were immediately subjected to Western analysis as described above. For each condition, 25 μg of the S-100 fraction was loaded on the gel, and probed with the corresponding antibody.

As to `CN1CC[C@H](c2c(O)cc(O)c3c(=O)cc(-c4ccccc4Cl)oc23)[C@H](O)C1` [FP, Flavopiridol], in experiment [1] (10 nM PMA, FP 50-100 nM, 24 h), the p21WAF1/CIP1 expression entry is given as “no effect”. Besides, the p21WAF1/CIP1 levels result in experiment [1] is given as “did not modify”. Besides, in experiment [2] (12 and 24 hours treatment), the “FP concentration at which reduction in cyclin D1 levels was first observed” value amounted to 100 nM and the “FP concentration at which reduction in cyclin D1 levels was virtually complete” value came out at 300 nM. Also, the “release of cytochrome c into the cytosol” value in experiment [3] (PMA 10 nM, 6 h) is “some effect”. Also, the cytochrome c release entry in experiment [3] was “increased modestly”.
On to `CCCC(=O)[O-].[Na+]` [SB, sodium butyrate], for which the p21WAF1/CIP1 levels result in experiment [1] is listed as “time-dependent increase”. In addition, the “cyclin D1 protein” value in experiment [2] (SB 1 mM 24 hours, FP and SB 12 hours) is reported as “moderate decrease”. For the same compound, the cytochrome c release result in experiment [3] is “increased modestly”.

The record behind these values is US20050004007A1, “Promotion of adoptosis in cancer cells by co-administration of cyclin dependent kinase inhibitiors and cellular differentiation agents” (priority 2000, published 2005).
